Reference: PubChem BioAssay AID2060882 (Molecular Pharmacology Branch, DTP, NCI, 2025)

System: 898857-211-R-J1-PDC complex spheroids, growth % test/control
Experiment: Anticancer human tumor 898857-211-R-J1-PDC patient-derived melanoma cell line growth inhibition [RAS]
Conditions: for viability, T/C: stronger effect = lower value
In short: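 Agents were tested in combination matrices in half-log decrements from a top concentration at or near clinical Cmax (10 microM if undetermined). Targets were multi-cell spheroids of tumour lines plus HUVEC and MSC stromal cells.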

[1] = curve of first compound, second compound 0.000949 µM
[2] = curve of first compound, second compound 0.003 µM
[3] = curve of first compound, second compound 0.00949 µM
[4] = curve of first compound, second compound 0.03 µM
[5] = curve of first compound, second compound 0.0949 µM
[6] = curve of first compound, second compound 0.3 µM
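Note: spheroids exposed to compound for seven days before readout.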
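Throughout, for viability, T/C: 100% = DMSO vehicle control wells.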

SMILES: CC1(C)CCC(Nc2ncc(C(F)(F)F)c(-c3c[nH]c4c(P(C)(C)=O)c(C#N)ccc34)n2)CN1 (stereo unspecified) + CCn1c(-c2cc(N3CCN(C)CC3)cnc2C(C)OC)c2c3cc(ccc31)-c1csc(n1)CC(NC(=O)C1CC1C)C(=O)N1CCCC(N1)C(=O)OCC(C)(C)C2
- IC50 [1]: 2.87 nM
- IC50 [2]: 2.98 nM
- IC50 [3]: 3.56 nM
- IC50 [4]: 2.5 nM
- IC50 [5]: 3.54 nM
- IC50 [6]: 2.87 nM
- viability, T/C (second compound 0.000949 µM, first compound 0.000949 µM): 104%
- viability, T/C (second compound 0.000949 µM, first compound 0.003 µM): 47.7%
- viability, T/C (second compound 0.000949 µM, first compound 0.00949 µM): 24.2%
- viability, T/C (second compound 0.000949 µM, first compound 0.03 µM): 16.2%
- viability, T/C (second compound 0.000949 µM, first compound 0.0949 µM): 17.3%
- viability, T/C (second compound 0.000949 µM, first compound 0.3 µM): 15.1%
- viability, T/C (second compound 0.003 µM, first compound 0.000949 µM): 79.3%
- viability, T/C (second compound 0.003 µM, first compound 0.003 µM): 49.8%
- viability, T/C (second compound 0.003 µM, first compound 0.00949 µM): 25.2%
- viability, T/C (second compound 0.003 µM, first compound 0.03 µM): 18.4%
- viability, T/C (second compound 0.003 µM, first compound 0.0949 µM): 16%
- viability, T/C (second compound 0.003 µM, first compound 0.3 µM): 17.5%
- viability, T/C (second compound 0.00949 µM, first compound 0.000949 µM): 83.1%
- viability, T/C (second compound 0.00949 µM, first compound 0.003 µM): 54.7%
- viability, T/C (second compound 0.00949 µM, first compound 0.00949 µM): 23.2%
- viability, T/C (second compound 0.00949 µM, first compound 0.03 µM): 15.7%
- viability, T/C (second compound 0.00949 µM, first compound 0.0949 µM): 17.8%
- viability, T/C (second compound 0.00949 µM, first compound 0.3 µM): 17.8%
- viability, T/C (second compound 0.03 µM, first compound 0.000949 µM): 83.3%
- viability, T/C (second compound 0.03 µM, first compound 0.003 µM): 43.7%
- viability, T/C (second compound 0.03 µM, first compound 0.00949 µM): 23.4%
- viability, T/C (second compound 0.03 µM, first compound 0.03 µM): 19.8%
- viability, T/C (second compound 0.03 µM, first compound 0.0949 µM): 17.5%
- viability, T/C (second compound 0.03 µM, first compound 0.3 µM): 18.3%
- viability, T/C (second compound 0.0949 µM, first compound 0.000949 µM): 81.3%
- viability, T/C (second compound 0.0949 µM, first compound 0.003 µM): 54%
- viability, T/C (second compound 0.0949 µM, first compound 0.00949 µM): 26.2%
- viability, T/C (second compound 0.0949 µM, first compound 0.03 µM): 19.4%
- viability, T/C (second compound 0.0949 µM, first compound 0.0949 µM): 18.1%
- viability, T/C (second compound 0.0949 µM, first compound 0.3 µM): 16.6%
- viability, T/C (second compound 0.3 µM, first compound 0.000949 µM): 78.5%
- viability, T/C (second compound 0.3 µM, first compound 0.003 µM): 48.9%
- viability, T/C (second compound 0.3 µM, first compound 0.00949 µM): 23.7%
- viability, T/C (second compound 0.3 µM, first compound 0.03 µM): 18.4%
- viability, T/C (second compound 0.3 µM, first compound 0.0949 µM): 16%
- viability, T/C (second compound 0.3 µM, first compound 0.3 µM): 17.2%

SMILES: CCn1c(-c2cc(N3CCN(C)CC3)cnc2C(C)OC)c2c3cc(ccc31)-c1csc(n1)CC(NC(=O)C1CC1C)C(=O)N1CCCC(N1)C(=O)OCC(C)(C)C2 (stereo unspecified)
- viability, T/C (compound 0.000949 µM): 111% [middle of 8 runs]
- viability, T/C (compound 0.003 µM): 109% [middle of 8 runs]
- viability, T/C (compound 0.00949 µM): 102% [middle of 8 runs]
- viability, T/C (compound 0.03 µM): 105% [middle of 8 runs]
- viability, T/C (compound 0.0949 µM): 96.2% [middle of 8 runs]
- viability, T/C (compound 0.3 µM): 100% [middle of 8 runs]
- IC50 (compound alone, run of 08/26/2024): > 300 nM

SMILES: CC(C)n1nc(-c2ccc3oc(N)nc3c2)c2c(N)ncnc21 + CCn1c(-c2cccnc2C(C)OC)c2c3cc(ccc31)N1CCOC(CC(NC(=O)C(C(C)C)N(C)C(=O)C3(F)CCN(C(=O)C#CC(C)(C)N(C)C)CC3)C(=O)N3CCCC(N3)C(=O)OCC(C)(C)C2)C1
- IC50 [1]: 27.1 nM
- IC50 [2]: 23.8 nM
- IC50 [3]: 23.8 nM
- IC50 [4]: 21 nM
- IC50 [5]: 15.1 nM
- IC50 [6]: 7.05 nM
- viability, T/C (second compound 0.000949 µM, first compound 0.000316 µM): 107%
- viability, T/C (second compound 0.000949 µM, first compound 0.001 µM): 91.6%
- viability, T/C (second compound 0.000949 µM, first compound 0.00316 µM): 87.2%
- viability, T/C (second compound 0.000949 µM, first compound 0.01 µM): 68.7%
- viability, T/C (second compound 0.000949 µM, first compound 0.0316 µM): 46.4%
- viability, T/C (second compound 0.000949 µM, first compound 0.1 µM): 20.5%
- viability, T/C (second compound 0.003 µM, first compound 0.000316 µM): 106%
- viability, T/C (second compound 0.003 µM, first compound 0.001 µM): 90.9%
- viability, T/C (second compound 0.003 µM, first compound 0.00316 µM): 78.8%
- viability, T/C (second compound 0.003 µM, first compound 0.01 µM): 70%
- viability, T/C (second compound 0.003 µM, first compound 0.0316 µM): 44.8%
- viability, T/C (second compound 0.003 µM, first compound 0.1 µM): 20.4%
- viability, T/C (second compound 0.00949 µM, first compound 0.000316 µM): 99.1%
- viability, T/C (second compound 0.00949 µM, first compound 0.001 µM): 99.2%
- viability, T/C (second compound 0.00949 µM, first compound 0.00316 µM): 86.2%
- viability, T/C (second compound 0.00949 µM, first compound 0.01 µM): 75.1%
- viability, T/C (second compound 0.00949 µM, first compound 0.0316 µM): 41.3%
- viability, T/C (second compound 0.00949 µM, first compound 0.1 µM): 17.7%
- viability, T/C (second compound 0.03 µM, first compound 0.000316 µM): 103%
- viability, T/C (second compound 0.03 µM, first compound 0.001 µM): 86.9%
- viability, T/C (second compound 0.03 µM, first compound 0.00316 µM): 79.9%
- viability, T/C (second compound 0.03 µM, first compound 0.01 µM): 72.1%
- viability, T/C (second compound 0.03 µM, first compound 0.0316 µM): 36.8%
- viability, T/C (second compound 0.03 µM, first compound 0.1 µM): 17%
- viability, T/C (second compound 0.0949 µM, first compound 0.000316 µM): 89.1%
- viability, T/C (second compound 0.0949 µM, first compound 0.001 µM): 87.2%
- viability, T/C (second compound 0.0949 µM, first compound 0.00316 µM): 86.5%
- viability, T/C (second compound 0.0949 µM, first compound 0.01 µM): 55.6%
- viability, T/C (second compound 0.0949 µM, first compound 0.0316 µM): 35.5%
- viability, T/C (second compound 0.0949 µM, first compound 0.1 µM): 16.2%
- viability, T/C (second compound 0.3 µM, first compound 0.000316 µM): 74.9%
- viability, T/C (second compound 0.3 µM, first compound 0.001 µM): 64%
- viability, T/C (second compound 0.3 µM, first compound 0.00316 µM): 61.1%
- viability, T/C (second compound 0.3 µM, first compound 0.01 µM): 46.3%
- viability, T/C (second compound 0.3 µM, first compound 0.0316 µM): 30%
- viability, T/C (second compound 0.3 µM, first compound 0.1 µM): 13.6%
